Measured values: the supplement of paper PMC10307832

Experiments:
Test in all cases: relative viability (nuclei count vs DMSO), 5 days (fraction); higher = more cells survive
IDH-C35 + Decitabine = compound: Cc1ccccc1C(C(=O)NC1CCCCC1)N(C(=O)Cn1ccnc1C)c1cccc(F)c1 [IDH-C35] + Nc1ncn([C@H]2C[C@H](O)[C@@H](CO)O2)c(=O)n1 [Decitabine] (partner 2 µM)
Method in brief: (§1)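 Each reported value is a median over duplicate plates. It expresses relative viability: treated-well nuclei count divided by vehicle-well nuclei count. Lung cancer cell lines in 1536-well plates were dosed by pin tool a day after seeding, alone with one drug or with a fixed anchor-drug dose plus five library-drug doses (not always all listed) in √10 steps, and nuclei were counted after 5 days.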

[1] = compound: CC1=C(C(=NN1)C)CC2=C(C3=C(S2)N(C(=O)N(C3=O)C)CC(C)C)C(=O)N4C[C@@H](CO4)O + COc1cc2c(Oc3ccc(NC(=O)C4(C(=O)Nc5ccc(F)cc5)CC4)cc3F)ccnc2cc1OCCCN1CCOCC1 [Foretinib] (partner 0.25 µM)
Method in brief: as §1

[2] = compound: CC1=C(C(=NN1)C)CC2=C(C3=C(S2)N(C(=O)N(C3=O)C)CC(C)C)C(=O)N4C[C@@H](CO4)O + Nc1ncn([C@H]2C[C@H](O)[C@@H](CO)O2)c(=O)n1 [Decitabine] (partner 2 µM)
Method in brief: as §1

IDH-C35 + Navitoclax = compound: Cc1ccccc1C(C(=O)NC1CCCCC1)N(C(=O)Cn1ccnc1C)c1cccc(F)c1 [IDH-C35] + CC1(C)CCC(c2ccc(Cl)cc2)=C(CN2CCN(c3ccc(C(=O)NS(=O)(=O)c4ccc(N[C@H](CCN5CCOCC5)CSc5ccccc5)c(S(=O)(=O)C(F)(F)F)c4)cc3)CC2)C1 [Navitoclax] (partner 0.5 µM)
Method in brief: as §1

Cell Line | relative viability (IDH-C35 + Decitabine; first compound 0.08 µM) | relative viability (IDH-C35 + Decitabine; first compound 0.253 µM) | relative viability (IDH-C35 + Decitabine; first compound 0.8 µM) | relative viability (IDH-C35 + Decitabine; first compound 2.53 µM) | relative viability (IDH-C35 + Decitabine; first compound 8 µM) | relative viability ([1]; first compound 0.0025 µM) | relative viability ([1]; first compound 0.007906 µM) | relative viability ([1]; first compound 0.025 µM) | relative viability ([1]; first compound 0.07906 µM) | relative viability ([1]; first compound 0.25 µM) | relative viability ([2]; first compound 0.0025 µM) | relative viability ([2]; first compound 0.007906 µM) | relative viability ([2]; first compound 0.025 µM) | relative viability ([2]; first compound 0.07906 µM) | relative viability ([2]; first compound 0.25 µM) | relative viability (IDH-C35 + Navitoclax; first compound 0.08 µM) | relative viability (IDH-C35 + Navitoclax; first compound 0.253 µM) | relative viability (IDH-C35 + Navitoclax; first compound 0.8 µM) | relative viability (IDH-C35 + Navitoclax; first compound 2.53 µM) | relative viability (IDH-C35 + Navitoclax; first compound 8 µM)
201T | 0.871 | 0.839 | 0.86 | 0.839 | 0.836 | 1.18 | 1.16 | 1.02 | 1.11 | 1.2 | 0.87 | 0.866 | 0.795 | 0.865 | 0.82 | 1.18 | 1.19 | 1.19 | 1.17 | 1.19
A549 | 0.313 | 0.263 | 0.312 | 0.195 | 0.223 | 1.03 | 1.02 | 0.906 | 1 | 1.1 | 0.237 | 0.284 | 0.252 | 0.232 | 0.343 | 1.19 | 1.16 | 1.17 | 1.22 | 1.15
A-427 | 0.622 | 0.57 | 0.598 | 0.526 | 0.58 | 1.29 | 1.22 | 0.937 | 1.11 | 1.14 | 0.592 | 0.576 | 0.623 | 0.605 | 0.604 | 0.975 | 0.975 | 0.904 | 0.949 | 0.952
ABC-1 | 0.838 | 1.12 | 0.975 | 0.98 | 0.95 | 1.02 | 1.06 | 0.955 | 1.07 | 1 | 0.988 | 0.899 |  | 0.889 | 0.779 |  |  |  |  | 
BEN | 0.683 | 0.707 | 0.681 | 0.707 | 0.75 | 0.666 | 0.629 | 0.577 | 0.661 | 0.596 | 0.626 | 0.708 | 0.613 | 0.622 | 0.614 | 0.0634 | 0.062 | 0.0706 | 0.0643 | 0.0666
CAL-12T |  |  |  |  |  | 1.08 | 1.3 | 1.05 | 1.25 | 1.17 |  |  |  |  |  | 1.32 | 1.19 | 1.06 | 1.36 | 1.09
COR-L23 | 0.426 | 0.471 | 0.421 | 0.478 | 0.459 | 0.947 | 1.07 | 0.8 | 0.87 | 0.846 | 0.439 | 0.41 | 0.406 | 0.304 | 0.381 | 1.17 | 0.907 | 0.977 | 0.979 | 1.05
COR-L 105 | 0.559 | 0.678 | 0.724 | 0.677 | 0.619 | 1.1 | 0.899 | 0.974 | 1.03 | 1.06 | 0.574 | 0.632 | 0.653 | 0.644 | 0.615 | 1.01 | 1.04 | 0.64 | 0.899 | 0.569
Calu-6 |  |  |  |  |  | 0.984 | 0.813 | 0.715 | 0.809 | 0.897 |  |  |  |  |  | 0.838 | 0.765 | 0.997 | 0.968 | 0.78
ChaGo-K-1 | 0.507 | 0.531 | 0.535 | 0.533 | 0.531 | 0.886 | 0.979 | 0.888 | 0.914 | 0.968 | 0.506 | 0.509 | 0.508 | 0.536 | 0.553 | 0.62 | 0.966 | 1.09 | 0.73 | 1.17
EBC-1 |  |  |  |  |  | 0.117 | 0.107 | 0.12 | 0.107 | 0.103 |  |  |  |  |  | 0.364 | 0.503 | 0.52 | 0.359 | 0.203
EKVX | 0.343 | 0.399 | 0.4 | 0.321 | 0.339 | 0.884 | 0.736 | 0.69 | 0.732 | 0.744 | 0.365 | 0.311 | 0.309 | 0.267 | 0.369 | 1.17 | 0.911 | 0.899 | 1.01 | 0.897
EMC-BAC-2 | 1.03 | 0.988 | 1 | 0.925 | 0.993 | 1.04 | 1.09 | 1.07 | 1.08 | 1.04 | 1.03 | 1.01 | 1.03 | 1.03 | 1.03 | 1.13 | 1.12 | 1.15 | 1.12 | 1.14
EPLC-272H | 0.357 | 0.392 | 0.344 |  | 0.384 | 0.73 | 0.618 | 0.765 | 0.657 | 0.643 | 0.374 | 0.346 | 0.369 | 0.354 | 0.352 | 1.27 | 1.13 | 1.13 |  | 1.07
H3255 | 0.61 | 0.607 | 0.606 | 0.63 | 0.596 | 1.03 | 0.968 | 0.784 | 0.802 | 0.775 | 0.567 | 0.446 | 0.568 | 0.651 | 0.641 | 0.577 | 0.543 | 0.495 | 0.606 | 0.636
HARA | 0.434 | 0.438 | 0.625 | 0.504 | 0.505 | 1 | 1.01 | 0.84 | 0.656 | 0.984 | 0.578 | 0.578 | 0.653 | 0.581 | 0.524 | 1.08 | 1.14 | 1.14 | 1.12 | 1.14
HCC-15 | 0.61 | 0.546 | 0.689 | 0.579 | 0.635 | 1.05 | 0.989 | 0.961 | 1.03 | 1.2 | 0.707 | 0.621 | 0.692 | 0.662 | 0.781 | 0.69 | 0.692 | 0.708 | 0.632 | 0.606
HCC-44 | 0.997 | 0.914 | 0.91 | 0.939 | 0.901 |  |  |  |  |  | 0.978 | 0.961 | 0.949 | 0.912 | 1.06 | 0.927 | 1.02 | 1.02 | 0.953 | 0.952
